# Structures can show the parent of a compound that is named as a salt.
# System: SB.msgc-1
# Experiment: AC50 for growth inhibition (viability) (log10 M); higher = less potent
# Details: SB.msgc-1 (sporadic gastric cancer)
# How it was run: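 Gastric cancer cells from hereditary or sporadic patients, 500 per 1536 well, were exposed to compound for 48 h over 11 threefold dilutions from a final 46 μM. CellTiter-Glo luminescence, read on a ViewLux, measured viability, which was normalised to DMSO. The log half-maximal activity concentration came from four-parameter fits, and only high-quality curve classes were kept.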
row,Structure (SMILES),AC50 for growth inhibition (log10 M)
1,COc1cccc2c1C(=O)c1c(O)c3c(c(O)c1C2=O)C[C@@](O)(C(=O)CO)C[C@@H]3O[C@H]1C[C@H](N)[C@H](O[C@H]2CCCCO2)[C@H](C)O1 [Pirarubicin],-5.68
2,OCCNC1CCCc2c1[nH]c1ccc(-c3ccccc3)cc21 (stereo unspecified) [CASIN],-4.63
3,Cc1c(C(=O)c2cccc3ccccc23)c2cccc3c2n1[C@H](CN1CCOCC1)CO3,-5.08
4,COC1=CC=C(C(=C1)OC(C)C)C/2=N/[C@@H]([C@@H](N2C(=O)N3CCNC(=O)C3)C4=CC=C(Cl)C=C4)C5=CC=C(Cl)C=C5 [Nutlin-3],-4.78
5,CN[C@@H]1[C@H](O)[C@H](NC)[C@H]2O[C@@]3(O)C(=O)C[C@@H](C)O[C@H]3O[C@@H]2[C@H]1O [Spectinomycin hydrochloride],-6.08
6,CNC(=O)c1cccc(-c2ccc3c(N4CCOC[C@@H]4C)nc(N4CCOC[C@@H]4C)nc3n2)c1 [AZD-2014],-7.03
7,N#C[C@H](O[C@@H]1O[C@H](CO[C@@H]2O[C@H](CO)[C@@H](O)[C@H](O)[C@H]2O)[C@@H](O)[C@H](O)[C@H]1O)c1ccccc1 [Amygdalin],-4.68
8,Cc1n[nH]c2ccc(-c3cncc(OC[C@@H](N)Cc4ccccc4)c3)cc12,-5.43
9,C=CC(=O)N1CCC[C@@H](n2nc(-c3ccc(Oc4ccccc4)cc3)c3c(N)ncnc32)C1,-7.48
10,Cc1coc2c1C(=O)C(=O)c1c-2ccc2c1CCCC2(C)C [Tanshinone IIA],-4.68
11,CCOC(=O)C(C#N)C\1C2=CC(=CC=C2O\C(=C1C(=O)OCC)N)Br (stereo unspecified) [HA-14-1],-4.63
12,O=C(CCc1ccc(O)cc1)c1c(O)cc(O)cc1O [Phloretin],-7.13
13,N#C/N=C(\NCCCCCCOc1ccc(Cl)cc1)Nc1ccncc1 [GMX-1778],-6.88
14,CNC(=O)c1ccc(N2C(=S)N(c3cnc(C#N)c(C(F)(F)F)c3)C(=O)C23CCC3)cc1F [ARN-509],-6.08
15,CNc1nccc(-c2cccnc2Oc2cc(C(=O)Nc3cccc(C(F)(F)F)c3)ccc2C)n1 [AMG-Tie2-1],-4.63
16,CNC1CCC(N(Cc2cccc(-c3ccncc3)c2)C(=O)c2sc3ccccc3c2Cl)CC1 (stereo unspecified) [SAG],-4.88
17,CC(C)C[C@H](NC(=O)[C@H](Cc1ccccc1)NC(=O)c1cnccn1)B(O)O [Bortezomib],-7.98
18,CC(C)Nc1cc(C(F)(F)F)cc2nc(NC(=O)c3cccnc3)nn12 [S-99],-5.08
19,CC1(C)CC(=O)c2c(C(F)(F)F)nn(-c3ccc(C(N)=O)c(NC4CCC(OC(=O)CN)CC4)c3)c2C1 (stereo unspecified) [SNX-5422],-7.13
20,CN(Cc1cnc2nc(N)nc(N)c2n1)c1ccc(C(=O)N[C@@H](CCC(=O)O)C(=O)O)cc1 [Methotrexate],-7.48
21,Cn1c2ccccc2c2c3c(c4c5ccccc5n(CCC#N)c4c21)CNC3=O [G?-6976],-5.23
22,C#CCC(Cc1cnc2nc(N)nc(N)c2n1)c1ccc(C(=O)N[C@@H](CCC(=O)O)C(=O)O)cc1 (stereo partly specified) [Pralatrexate],-7.28
23,CN(c1ncccc1CNc1nc(Nc2ccc3c(c2)CC(=O)N3)ncc1C(F)(F)F)[S+](C)(=O)[O-],-5.13
24,COc1cccc2c1C(=O)c1c(O)c3c(c(O)c1C2=O)C[C@@](O)(C(=O)CO)C[C@@H]3O[C@H]1C[C@H](N)[C@@H](O)[C@H](C)O1 [Epirubicin hydrochloride],-6.18
25,COC1=C(OCCCN2CCOCC2)C=C3N=CC=C(OC4=CC=C(C=C4F)\C5=C\N=C(\NC6=CC=C(F)C=C6)N(C)C5=O)C3=C1 [AMG-51],-4.73
26,Nc1ncnc2c1nc(Cl)n2[C@@H]1O[C@H](CO)[C@@H](O)[C@H]1O [8-Cl-Ado],-4.68

row,Structure (SMILES),AC50 for growth inhibition (log10 M)
1,CC(C)(O)/C=C\C(=O)[C@](C)(O)[C@H]1[C@H](O)C[C@]2(C)[C@@H]3CC=C4[C@@H](C=C(O)C(=O)C4(C)C)[C@]3(C)C(=O)C[C@@]12C [Cucurbitacin I],-5.98
2,O=C1[O][Pt]2([NH]C3CCCCC3[NH]2)[O]C1=O (stereo unspecified) [Oxaliplatin],-5.58
3,COC1=CC=C2/C3=N/CCN3\C(=N/C2=C1OC)NC(=O)C4=CC=CN=C4 [PIK-90],-4.98
4,O=C(O)Cc1cccc(OCCCN(Cc2cccc(C(F)(F)F)c2Cl)CC(c2ccccc2)c2ccccc2)c1 [GSK-3965],-4.68
5,CC1=CC2=C(O1)C(=C3OC(=O)\C=C(C)/C3=C2)C [Trioxsalen],-4.93
6,Nc1nc(F)nc2c1ncn2[C@@H]1O[C@H](COP(=O)(O)O)[C@@H](O)[C@@H]1O [Fludarabine phosphate],-4.98
7,Nc1n[nH]c2nnc(-c3c(-c4ccccc4)nn4ccccc34)cc12,-5.23
8,CC(=O)N(C)C1(c2ccccc2)CCN(CCC[C@]2(c3ccc(Cl)c(Cl)c3)CCCN(C(=O)c3ccccc3)C2)CC1 [Osanetant],-4.78
9,CC(C)C[C@H](NC(=O)c1cc2ccccc2s1)C(=O)N1CCN(C(=O)[C@H](CO)N[S+](=O)([O-])c2ccc(Cl)cc2Cl)CC1,-4.73
10,NC1=NC=C(C=C1)C2=CC=C3N=CC\4=C(N(C(=O)\C=C4)C5=CC(=CC=C5)C(F)(F)F)C3=C2 [Torin-2],-6.78
11,CN1[C@@H]2CC(O)C[C@H]1[C@@H]1O[C@@H]12 (stereo partly specified) [Scopine],-4.83
12,COc1c(C)cnc(Cn2cnc3c(Cl)nc(N)nc32)c1C [CNF-2024],-7.18
13,CC1(C)O[C@@H]2C[C@H]3[C@@H]4C[C@H](F)C5=CC(=O)C=C[C@]5(C)[C@@]4(F)[C@@H](O)C[C@]3(C)[C@]2(C(=O)CO)O1 [Fluocinolone acetonide],-4.93
14,NC(=O)NO [Hydroxyurea],-6.88
15,c1ccc2c(CCNc3ccc(Nc4ccncc4)cc3)c[nH]c2c1 [Serdemetan],-4.73
16,CCC(=O)N[C@H]1CC[C@H](C(=O)N(C)c2ccc(-c3nc4ccccc4o3)cc2)C1 [FASN BI],-5.93
17,COc1ccc(F)c(F)c1C(=O)c1cnc(NC2CCN([S+](C)(=O)[O-])CC2)nc1N [R-547],-6.03
18,COC1=CC=C(C=C1O)C/2=C/C(=O)C3=C(O2)C=C(O[C@@H]4O[C@H](CO[C@@H]5O[C@@H](C)[C@H](O)[C@@H](O)[C@H]5O)[C@@H](O)[C@H](O)[C@H]4O)C=C3O [Diosmin],-5.58
19,c1ccc(-c2oc3ncnc(NC[C@@H]4CCCO4)c3c2-c2ccccc2)cc1 [AIM-100],-5.73
20,CC(C)n1cnc2c(NCCc3ccc(O)cc3)nc(-c3csc4ccccc34)nc21 [StemRegenin 1],-4.88
21,Nc1cc(C(F)(F)F)c(-c2cc(N3CCOCC3)nc(N3CCOCC3)n2)cn1 [BKM-120],-6.18
22,CN1CCN(c2cc(C(=O)Nc3ccc4c(c3)-c3c(c(C(N)=O)nn3-c3ccc(F)cc3)CC4)c(Cl)cn2)CC1 [PHA-408],-5.93
23,Cn1cc(-c2cnn3c(N)c(Br)c([C@H]4CCCNC4)nc23)cn1,-6.83
24,CC12CC3CC(C)(C1)CC(N)(C3)C2 [Memantine hydrochloride],-4.83
25,NC1=C(Cl)C(=CC=N1)OC2=C(F)C=C(NC(=O)\C3=C\N\C=C(C3=O)\C4=CC=C(F)C=C4)C=C2,-4.73
